From PMC8018184, “Evaluation of the Pharmacophoric Role of the O–O Bond in Synthetic Antileishmanial Compounds: Comparison between 1,2-Dioxanes and Tetrahydropyrans” (Journal of Medicinal Chemistry, 2020)
“And” between values parts separate entries of the source, which are not always exact repeats. Equal values may be shown once.

Experiments:
[1] = system: amastigotes of L. donovani; parameters: method as in PMID 30908481; conditions: cited from earlier work
[2] = system: promastigotes of L. donovani; parameters: method as in PMID 30878827; conditions: in vitro; cited from earlier work
[3] = system: intramacrophage amastigotes of L. donovani; assay: Amastigote growth inhibition assay in infected THP-1 cells (Giemsa, infectivity index); assay type: cell-based, Leishmania donovani; conditions: for IC50: Leishmania donovani, intracellular amastigotes in THP-1, 72 h, read-out: IC50 against amastigotes of L. donovani
Procedure: To evaluate the efficacy of the compounds on the intracellular form of L. donovani, human acute monocytic leukemia cell line (THP-1) was infected with L. donovani promastigotes. Cells were harvested and seeded in a 96-well plate (10^5 cells mL^–1) in the complete RPMI 1640 medium, and PMA (0.1 μM, Cayman Chemical Company, Ann Arbor, Michigan, USA) was added for obtaining maturation and cell adherence. Cells were incubated at 37 °C in a 5% CO2 incubator. After 48 h, the medium was replaced with the fresh medium containing stationary-phase promastigotes that were then phagocyted by monocytic cells and transformed into intracellular amastigotes. After 24 h of incubation, newly synthesized compounds were added and the plates were incubated at 37 °C in a 5% CO2 incubator for 72 h. After incubation, wells were washed, fixed, and stained with Giemsa. Staining was detected using a Nikon Eclipse E200 light microscope (Nikon, Tokyo, Japan). The infectivity index (% of infected macrophages × average number of amastigotes per macrophage) was determined by counting at least 100 cells in duplicate cultures.

[4] = Cytotoxicity test on Vero cells (alamarBlue); assay type: cell-based, African green monkey; conditions: African green monkey
Procedure: Vero cells (kidney of African green monkey epithelial cell line) were cultured at 37 °C in the MEM liquid medium supplemented with 10% FBS (EuroClone SpA), 1% levoglutamine (EuroClone SpA), and 1% penicillin–streptomycin (EuroClone SpA). THP-1 cells (human leukemia monocytic cell line) were cultured at 37 °C in the RPMI 1640 (EuroClone SpA) liquid medium supplemented with 10% FBS (EuroClone SpA), 1% levoglutamine (EuroClone SpA), 1% penicillin–streptomycin, and mercaptoethanol (Gibco) 50 μM.
The cytotoxicity of the compounds was determined using mammalian kidney epithelial cells (Vero cell line) and human acute monocytic leukemia cell line (THP-1). Cells were seeded (10^5 cells mL^–1) on 96-well plates with the complete MEM medium and incubated with test compounds at 37 °C in a 5% CO2 incubator. After 72 h of incubation, 20 μL of the alamarBlue reagent was added to each well and incubated at 37 °C for 24 h. Reduction of resazurin to resorufin was evaluated after 24 h by absorbance measurement at the Multiskan ascent plate reader (Thermo Fisher Scientific Inc.,) at 550 and 630 nm. […] Each experiment was performed in duplicate.

[5] = system: promastigotes of Leishmania donovani strains; parameters: method as in earlier work; conditions: Figure 1, cited from earlier work; for IC50: read-out: IC50 on promastigotes of L. donovani strains
[6] = system: L. donovani promastigotes (MHOM/NP/02/BPK282/0cl4); assay: Promastigote growth inhibition assay (alamarBlue); assay type: cell-based, Leishmania donovani; conditions: for IC50: Leishmania donovani, 72 h, alamarBlue, HOMEM 20% FBS, compounds as racemates, read-out: IC50 (concentration causing 50% growth inhibition) against promastigotes of L. donovani
Procedure: The bioactivity of the new tetrahydropyrans 3 was initially evaluated against the extracellular promastigote forms of L. donovani (MHOM/NP/02/BPK282/0cl4) as the reference strain, indicative of the leishmaniasis in the Old World. The results were expressed as IC50, i.e., the concentration of the product required to inhibit the parasite growth by 50%. When a compound could inhibit the promastigote growth, its cytotoxicity was also evaluated on Vero cells (Table 1) and on THP-1 cells (see the Supporting Information, Table S3) and the corresponding selectivity indexes (SIs) were calculated. The performance of each tetrahydropyran 3 was compared with that of the corresponding endoperoxide 2 (Table 1).
Promastigotes of a L. donovani reference strain (MHOM/NP/02/BPK282/0cl4) were maintained at 26 °C in a liquid custom-made medium, HOMEM Cat. no: 1140-082 (Gibco Thermo Fisher Scientific Inc., Waltham, USA), complete composition: S-MEM (Eagle) 1 × 1 liter pack, glucose (1–2 g), sodium bicarbonate (0.3 g), sodium pyruvate (0.11 g), p-aminobenzoic acid (1 mg), biotin (0.1 mg), HEPES (4.77–5.96 g), MEM amino acids (10 mL), MEM nonessential amino acids (10 mL), pH 7.5–7.6, supplemented with 20% fetal bovine serum (FBS, EuroClone SpA, Milan, Italy)[123] and 1% penicillin–streptomycin (EuroClone SpA).
To evaluate the efficacy of the compounds on the extracellular forms of L. donovani, promastigotes in their late log/stationary phase were seeded with the complete HOMEM medium at 10^6 cells mL^–1 in 96-well plates and incubated with tested compounds at a range concentration of 600–1.6 μM in a 26 °C incubator for 72 h. The antileishmanial drug amphotericin B was used as the positive control, and untreated promastigotes were the negative control. Each experiment was performed in duplicate. Stock solution of the compounds was 8 mM in DMSO. […] The alamarBlue assay includes a colorimetric growth indicator based on detection of metabolic activity. Specifically, the system incorporates an oxidation–reduction (REDOX) indicator that changes color in response to chemical reduction of the growth medium resulting from cell growth. The method monitors the reducing environment of proliferating cells; the cell-permeable resazurin is added (nonfluorescent form, blue color) and, upon entering cells, is reduced to resorufin (fluorescent form, red color) as a result of cellular metabolic activity. Evaluation was performed by adding 20 μL of alamarBlue and incubating at 26 °C for 24 h. The reducing environment was evaluated after 24 h by absorbance measurement at the Multiskan ascent plate reader (Thermo Fisher Scientific Inc.) at 550 and 630 nm.

Leishmania promastigotes = system: Leishmania promastigotes; parameters: method as in PMID 27867026, PMID 17339374; conditions: Figure 3; cited from earlier work
[7] = system: intracellular amastigotes of L. infantum; parameters: method as in PMID 26014947; conditions: in vitro; cited from earlier work
[8] = system: promastigotes of L. infantum; parameters: method as in PMID 26014947; conditions: in vitro; cited from earlier work

In the case of “6-(1,2,6,7-tetraoxaspiro[7.11]nonadec-4-yl) hexan-1-ol [N-251]”, the IC50 [1] is given as 6.7 µM.
In the case of `CCCCC1(CCCC)CC(CNCCCn2ccnc2)C(C)(OC)OO1` (stereo not drawn) [3,4-cis 2a], the IC50 [2] is given as 5.5 µM.
In the case of `CCCCC1(CCCC)CC(CNCCCn2ccnc2)C(C)(OC)OO1` (stereo not drawn) [3,4-trans 2a], the IC50 [2] is listed as 4 µM.
For `C[C@@H]1[C@H](O)[C@@H](C)/C=C/C=C/C=C/C=C/C=C/C=C/C=C/[C@H](O[C@@H]2O[C@H](C)[C@@H](O)[C@H](N)[C@@H]2O)C[C@@H]2O[C@](O)(C[C@@H](O)C[C@@H](O)[C@H](O)CC[C@@H](O)C[C@@H](O)CC(=O)O[C@H]1C)C[C@H](O)[C@H]2C(=O)O` [Amphotericin B, reference compound], the IC50 [3] was 0.07 µM, the “Selectivity index (SI) = CC50/IC50” value ([3]; Vero CC50 / IC50 on amastigotes) was 2857.1 and the CC50 at 72 h [4] was 200 µM. The IC50 [5] was 0.03 to 2.8 µM, the IC50 [6] was 0.3 µM and the “Selectivity index (SI) = CC50/IC50” value ([6]; Vero CC50 / IC50 on promastigotes) was 666.7.
For `C[C@@H]1CC[C@H]2[C@@H](C)C(=O)O[C@@H]3O[C@@]4(C)CC[C@@H]1[C@]32OO4` [Artemisinin, reference compound], the IC50 [3] is given as greater than 40 µM, the IC50 (Leishmania promastigotes) is given as 30.8 µM and the IC50 [6] is given as greater than 40 µM.
For `COc1ccc(N[C@@]2(C(F)(F)F)O[C@@H]3C[C@@]4(C)C[C@H]5[C@H](C)CC[C@@H]([C@H]2C)[C@@]35OO4)cc1` [BB201], the IC50 (Leishmania promastigotes) is listed as 0.38 to 1.5 µM.
In the case of `C=CCO[C@@]1(C(F)(F)F)O[C@@H]2C[C@@]3(C)C[C@H]4[C@H](C)CC[C@@H]([C@H]1C)[C@@]24OO3` [BB241], the IC50 (Leishmania promastigotes) is listed as 1.6 to 6.3 µM.
For `O=C1CCC2(CC1)OOC1(O2)C2CC3CC(C2)CC1C3` (stereo not shown) [LC50], the IC50 [7] is listed as 79.8 to 108 µM.
In the case of `NCC1CC[C@]2(CC1)OO[C@]1(O2)C2CC3CC(C2)CC1C3` (stereo partly shown) [LC95], the IC50 [7] is listed as 79.8 to 108 µM and the IC50 [8] is listed as 3.5 µM and 3.5 to 9.4 µM.
For `NC[C@@H]1O[C@H](O[C@H]2[C@@H](O)[C@H](O[C@@H]3[C@@H](O)[C@H](N)C[C@H](N)[C@H]3O[C@H]3O[C@H](CO)[C@@H](O)[C@H](O)[C@H]3N)O[C@@H]2CO)[C@H](N)[C@@H](O)[C@@H]1O` [Paromomycin], the IC50 [5] is given as 19.7 to 28.1 µM.
For `O.O.O.O.O.O.O.O.O.O=C([O-])[C@@H]1[O][Sb](=[O])([O][Sb]2(=[O])[O][C@H]([C@H](O)CO)[C@H](O)[C@H](C(=O)[O-])[O]2)[O][C@H]([C@H](O)CO)[C@@H]1O.[Na+].[Na+].[Na+]` (stereo partly shown) [Sodium stibogluconate], the “IC50 on promastigotes of L. donovani strains” value [5] is given as 8.8 to 22.0 µg/mL.
